According to patent publication US20090317419A1, “Tetramers” (Duke University, priority 2008, published 2009):
Ends that are not written are not given here. * marks the point of attachment. Biotin = O=C1N[C@H]2[C@H](CS[C@H]2CCCCC(=O)*)N1

Assays:
[1] = system: total naïve splenic BALB/c B cells; conditions: APC-labeled tetramer
Description: (§1) Cell isolation, serum collection, and PBMC isolations. Heparinized or non-heparanized blood was collected sub-mandibularly 10 days after immunizations. For preparation of peripheral blood lymphocytes for B cell tetramer analysis, PBMC were isolated from blood collected in heparinized tubes (0.2 ml) using Lympholyte M (Cederlane). For Luminex and ELISA assays, sera was isolated from non-heparanized blood and stored at −20° C. until use. Spleen, bone marrow (BM), and peritoneal cavity (PerC) cells were also collected. For most immunizations, tissues were harvested after the 4th boost, except for kinetic studies, in which tissues from mice were harvested after 1, 3 or 7 days after a single immunization. For BM preparations, femora and tibiae were removed, aspirated with tissue medium using 23 gauge needles, filtered with 70 μm cell strainers (BD labware), and RBC-depleted using Tris-buffered ammonium chloride lysis. For splenocyte preparation, spleens were harvested and dissociated into single-cell suspensions either by passage through 70 μm cell strainers in tissue medium or by using frosted glass slides, and blood erythrocytes were depleted with ammonium chloride lysis. For isolation of peritoneal cells, peritoneal cavities of sacrificed mice were lavaged by injection with 10 ml of PBS, followed by gentle massage of the abdomen, and withdrawal of the peritoneal exudates. BM, splenic, and peritoneal single cell suspensions were centrifuged at 1500 rpm for 5 min and resuspended in 5, 10, and 1 ml of tissue media, respectively, for cell counts and immunofluorescence staining. Cell counts were performed in duplicate on a Coulter ZI Dual Threshold Cell Counter (Coulter).
(§2) Antibodies and flow cytometry. Immunofluorescent staining of single cell suspensions (≧2×10^6) was conducted using pre-mixed combinations of fluorochrome-labeled antibodies and APC-conjugated B cell tetramers at empirically-determined optimal concentrations. All antibodies were from BD unless otherwise stated. […] Other reagents included biotinylated antibodies against dump channel markers: Thy1 (Ox7; Abcam), F4/80 (BM8; Abcam), CD11c (clone HL3), Gr-1 (clone RB6-8C5), TER-119, and NK-1.1 (clone PK136), secondary staining SA-Texas Red conjugate; v-amine live/dead violet dye (Molecular Probes), and Fc block (anti-CD16/32; clone 2.4G2).
(§3) Staining was conducted at 4° C. in several sequential steps in FACS staining buffer (1×PBS with 2% FCS, 0.1% NaN3), washing twice between steps. First, cells were incubated with v-amine live/dead dye for 15 min. Next, cells were stained with APC-labeled tetramers for 30 min. Where applicable, this was preceded by addition of cold tetramer at 10 fold molar excess for 1 h. Finally, cells were stained with Fc block for 30 min, followed by incubation with combinations of primary antibody cocktails for 30 min, and secondary staining with SA-Texas Red for 30 min.
(§4) Data were acquired using an LSRII flow cytometer and Cell Quest software (BD Immunocytometry systems). A minimum of 250000 events were acquired per sample. FACS Analysis was performed using FlowJo software (Tree Star). For analysis, single cells were positively gated based on their forward scatter height vs. forward scatter area and side scatter height vs. side scatter area profiles, lymphocytes were then positively gated based on their forward and side scatter profile (live lymphocyte gate), residual dead cells were excluded with negative gating on v-amine live/dead dye, and all irrelevant non-B cells were excluded with negative gating on dump markers Thy1, F4/80, CD11c, Gr-1, TER-119, and NK-1.1.

[2] = system: antibody coated beads (P3X63/Ag8, A32, 7B9, F39F, 7B2, 13H11, 2F5); conditions: flow cytometry, all antibody coated beads tested
Description: (§5) Antibody-coated beads. Carboxyl-polystyrene beads (3.0-3.4 μm) (Spherotech, Inc., Lake Forest, Ill.) were resuspended in 0.01 M sodium acetate buffer (pH 5.0) and reacted (20° C.×1 hr) with 1-ethyl-3-(3-dimethylaminopropyl) carbodiimide hydrochloride (EDC) (Sigma-Aldrich, Co., St. Louis, Mo.) at a ratio of 3.1 mg beads to 1 mg EDC. Beads were washed with sodium acetate buffer, resuspended in a minimal volume before adding purified mAb in the same buffer (ratio of 16 mg beads to 1 mg mAb), incubated (20° C.×2 hrs), then washed with sodium acetate buffer. Beads were resuspended at 5% in PBS containing 1% bovine serum albumin and 0.02% sodium azide.
(§6) Use of antibody-coated beads and cell lines for tetramer quality control. Tetramer stocks were diluted to twice the desired final concentration in PBS containing 1% BSA. An equal volume of beads or cells at 5×10^5 up to 2×10^6 per sample were mixed with tetramer and incubated (4° C.×30 min). Beads or cells were washed with PBS+1% BSA before being fixed in 2% methanol-free formaldehyde (Polysciences, Inc, Warrington, Pa.) in PBS. Samples were stored at 4° C. prior to being analyzed by flow cytometry (BD LSR II, Becton Dickinson, Mountain View, Calif.). Data were analyzed using FlowJo (Tree Star, Ashland, Oreg.). For tetramer titration 40-80 ng tetramer per 10^6 cells/beads was serially diluted over 8-12 points. Optimal concentrations determined by this method were used for subsequent experiments. For cold competition experiments the incubation step was performed by staining with 10-fold excess unlabeled tetramer (4° C.×30 min) prior to the addition of APC-labeled tetramer. For cell dilution experiments, a mixture of mAb cell lines was made and then 1:10 serial dilutions of cells prepared. For cross competition experiments, mixtures of cells were prepared and then stained singly with anti-IgG reagents or tetramer, or the cells were doubly stained with both reagents either sequentially or concurrently.

[3] = system: mAb cell lines P3X63/Ag8, F39F, 7B2, 13H11; conditions: flow cytometry, all Ig+ cell lines tested
Description: as §6

[4] = system: total naïve splenic C57BL/6 B cells; conditions: C57BL/6, APC-labeled tetramer
Description: as §1, §2, §3, §4

[5] = system: V3 loop mAbs 7B9 and F39F on beads; conditions: flow cytometry
Description: as §5, §6

[6] = system: mAb 7B9 (anti-gp120 V3 62.19); conditions: SPR, mAb 7B9 captured
[7] = system: mixture of F39F cells and P3X63/Ag8 cells; conditions: 6% F39F cells, 94% P3X63/Ag8 cells; sequential or simultaneous staining
Description: as §6

F39F cells = conditions: flow cytometry
Description: as §6

mAb F39F (anti-gp120 V3) = conditions: SPR, mAb F39F captured, 25° C., PBS pH 7.4
Description: Surface Plasmon Resonance (SPR) measurements of tetramer binding to peptide epitopes. Tetramer binding assays were carried out on a BIAcore 3000 (BIAcore/GE Healthcare, Piscataway, N.J.) instrument using mAbs against each specific B cell epitope.
Each mAb (about 1000 RU) was first captured on anti-human Fc mAb (Pierce, Rockford, Ill.) immobilized on a CM5 sensor chip. Approximately 3000 RU of anti-human Fc mAb was covalently coupled to each flow cell of the sensor chip as described before (Alam et al, Journal of Immunology 178:4424-4435 (2007)). Each B cell tetramer was injected over its epitope specific mAb or a control surface immobilized with irrelevant mAb. For each tetramer binding curve, non-specific binding signals obtained from the control surface were subtracted. The binding assay was monitored at 25° C. and using PBS, pH 7.4, as the running buffer. The BIAevaluation 3.0 software (BIAcore/GE Healthcare, Piscataway, N.J.) was used for SPR binding data analyses.

[8] = gp41 HR2 peptide immunization, serum anti-2F5 epitope Ab ELISA, BALB/c; type: in vivo, BALB/c mice; conditions: peptide in Emulsigen + oCpG, i.p., ELISA 10 days after each immunization
Description: (§7) Peptide immunogen formulation, dose, route of immunization, and immunization schedule. The peptide immunogen used was a gp41 heptad repeat-2 (HR2) DP 1 78Q16L peptide ([…]), synthesized and purified from Primm, and verified to be >95% purified as determined by mass spectrometry. Lyophilized peptide immunogens stored at 4° C. (Primm Biotechnology) were reconstituted by dissolving in DMSO at 8 mg/ml and bringing up to 1 mg/ml in saline. Adjuvanting was done by dissolving mouse oCpG, (5′-[…]-3′; Midland Certified Reagent Company) in saline at 1 mg/ml and first mixing with Oil/water Emulsigen (MVP laboratories) in saline, then with peptide, such as to create a final mixture of 50 μg/ml oCpG, 125 μg/ml peptide, 10% Emulsigen (for i.p. immunizations) and 200 μg/ml oCpG, 500 μg/ml peptide, 10% Emulsigen (for i.m. immunizations). Immunization primes and boosts were all done at a single site intraperitoneally using a volume of 200 μl of the above formulation, such that mice in all instances were injected with 25 μg peptide and 10 μg oCpG. Mice were primed for 10 days and then boosted four times, every 14 days.
(§8) Cell isolation, serum collection, and PBMC isolations.
(§9) ELISA assays. […] Optical density was read at 405 nm with a BioRad 680 microplate reader. […]

[9] = gp41 HR2 peptide immunization, serum anti-2F5 epitope Ab ELISA, C57BL/6; type: in vivo, C57BL/6 mice; conditions: C57BL/6, peptide in Emulsigen + oCpG, i.p., ELISA 10 days after each immunization
Description: as §7, §8, §9

| Substance | binding to total naïve splenic B cells [1] | binding to any antibody on beads [2] | binding to mAb cell lines [3] | binding to total naïve splenic B cells [4] | binding to antibody-coated beads [5] | koff [6] [s^−1 × 10^−3] | kon [6] [M^−1s^−1 × 10^3] | effect of PE labeled anti-IgG heavy chain reagent on tetramer binding [7] | binding to mAb cell line (F39F cells) | koff (mAb F39F (anti-gp120 V3)) [s^−1 × 10^−3] | kon (mAb F39F (anti-gp120 V3)) [M^−1s^−1 × 10^3] | anti-2F5 serum Ab response [8] | anti-2F5 serum Ab titers [9] |
| --- | --- | --- | --- | --- | --- | --- | --- | --- | --- | --- | --- | --- | --- |
| Biotin-GGGGGDWEYSVWLSN [dsDNA mimic tetramer] | no significant binding above background | did not bind | no cell line bound | – | – | – | – | – | – | – | – | – | – |
| Biotin-GGGTRPNNNTRKSIHIGPGRAFYATE [62.19 V3 tetramer] | minimal binding | – | – | minimal binding | bound to both V3 loop mAbs 7B9 and F39F | 0.19 | 35.6 | does not inhibit | bound | 0.60 | 60.5 | – | – |
| enfuvirtide | – | – | – | – | – | – | – | – | – | – | – | robust anti-2F5 serum Ab responses | no appreciable anti-2F5 serum Ab titers |
